Data on 6 compounds can be found in patent US7585637B2, “Estrogen related receptor, ERRα, a regulator of bone formation” (priority 1999, dated 2009).

Data set [1] has as its system primary rat calvaria (RC) cells. Put plainly: Cell number (cell counting) in RC cell cultures treated with ERRα antisense/sense oligonucleotides. In kind it is cell-based. Here is the method:
(§1) Cells were enzymatically isolated from the calvaria of 21 d Wistar rat fetuses by sequential digestion with collagenase as described previously (Bellows, 1986). Cells obtained from the last four of the five digestion steps (populations II-V) were pooled and plated in T-75 flasks in α-MEM containing 15% heat-inactivated FBS (Flow Laboratories, McLean, Va.) and antibiotics comprising […] penicillin G (Sigma Chemical Co., St. Louis, Mo.), […] gentamycin (Sigma), and […] fungizone (Flow Laboratories). After 24 h incubation, attached cells were washed with PBS to remove nonviable cells and other debris, and then collected by trypsinization using 0.01% trypsin in citrate saline. Aliquots were counted with a Coulter Counter (Coulter Electronics, Hialeah Fla.), and the remaining cells were resuspended in the standard medium described above. The resuspended cells were plated into 100 mm tissue culture dishes at 10^5 cells/dish, into 35 mm tissue culture dishes at 2×10^4/dish and in 24 wells plates at 10^4 cells/well. […] Medium was changed every 2 days. All dishes were incubated at 37° C. in a humidified atmosphere in a 95% air/5% CO2 incubator.
For cell growth analysis, the cell layers were rinsed in PBS, released with trypsin and collagenase (1:1, vol/vol, of solutions described above), and the harvested cells were counted electronically. Results are plotted as the average of three counts for each of three dishes for control and pcDNA3-ERRα or three wells for each concentration of antisense or sense primers used.
(§2) The resuspended RC cells were plated in 24 wells plates at 10^4 cells/well. Antisense oligonucleotide inhibition of ERRα expression was accomplished with a 20-base phosphorotbioate-modified oligonucleotide, localized to the A/B domain. The ERRα antisense oligonucleatide sequence was: 5′[…]-3′(SEQ ID NO:30). Control dishes were treated with the complementary sense oligonucleotide or no oligonucleotide. Preliminary experiments were done to determine effective oligonucleotide concentrations that were not toxic. […] Medium was changed every 2 days and fresh oligonucleotides were added. mRNA was collected at day 6 for the proliferation experiments and at day 15 for the differentiation experiments. Nodules were counted at 15 days.

In data set [2] the test system is ALP, BSP, OPN, OCN, cbfa1, COLLI, Cyclin D1, c-Fos, Bcl2, Bax. Description: RT-PCR of osteoblast, proliferation and apoptosis markers in antisense-treated RC cells. The format is cell-based, rat. Here is the method: Samples of total cellular RNA (1.5-5 μg) were reverse-transcribed using oligo dT and the first strand synthesis kit of Superscript™ II, Gibco BRL. PCR was performed with specific primers specific for ERRα. Primers, located in different exons, were as follows: […]
Osteoblast-associated and other markers were also amplified by PCR using specific primers for rat OCN, OPN, ALP, BSP, Cbfa1, COLL I (collagen type I α chain), C-fos, Cyclin D1, Bax and Bcl-2. PCR was done for 25 cycles (94° C. for 1 min, 55° C. for 1 min, 72° C. for 1 min and a final elongation step of 7 min at 72° C.) for OCN, OPN, ALP, BSP, L32, Bax and 30 cycles for Bcl-2, 32 cycles for c-Fos, 35 cycles for Cyclin D1 and Cbfa1 (with annealing temperatures of 58° C. and 62° C. respectively and 23 cycles for COLLI with annealing temperature of 59° C.
as §2

For a further data set, the system named is ERRα. Put plainly: Immunocytochemistry for ERRα on bone nodules after oligonucleotide treatment. In kind it is cell-based, rat. The conditions noted are these: 24 h of treatment; 1 μM. On the procedure:
Immunolabelling of cultures was done essentially as described previously (Turksen, 1991; Turksen, 1992). Cultures were rinsed with PBS, fixed with 3.7% formaldehyde in PBS and permeabilized with methanol at −20° C. Frozen sections were fixed 10 min in cold acetone. Paraffine sections were treated deparaffined in xylene, then rehydrated in 100%, 95% and 70% ethanol and water. After rinsing, cells in dishes or frozen, paraffine sections were incubated for 1 h at room temperature with 10% normal serum in PBS for ERRα and ERα and in 3% BSA in PBS (denaturated) for ERβ OCN, ALP, OPN, and BSP. After rinsing, cells or sections were incubated for 1.5 hours with appropriate dilutions of primary antibodies (1/50, anti-ERRα; anti-ERα or anti-ERβ (MC-20 or Y-19, respectively; Santa Cruz Biotechnology, Inc))(Shim et al, 1999; Saji et al, 2000; Tremblay et al 1999). The anti-rat OCN antiserum was kindly provided by Dominique Modrowski (INSERM U349, Hopital Lariboisiere, Paris, France) and used at 1/100 dilution. The anti-OPN MPIIIB10) and anti-BSP (WWVIDI) antibodies were purchased from the Hybridoma Bank (Iowa City, Iowa) and used at a 1/800 and 1/500 dilution respectively. […]

For data set [3], the system named is primary rat calvaria (RC) cells. Put plainly: Mineralized bone nodule formation (von Kossa) in RC cell cultures treated with antisense/sense oligonucleotides. In kind it is cell-based. The following applies: for decrease in mineralized bone nodule formation: treated day 5 to day 11; for decrease in mineralized bone nodule number: treated days 1-6 then normal differentiation medium, day 15. On the procedure: as §1
For quantification of nodule formation, dishes or wells were fixed and stained by the Von Kossa technique and bone nodules were counted on a grid (Bellows et al., 1986; Bellows and Aubin, 1989). Results are plotted as the mean number of nodules±SD of three wells for controls and each concentration of antisense or sense primers and five dishes for pcDNA3 control and pcDNA3-ERRα.
as §2

Another data set concerns ERRα mRNA. Put plainly: ERRα mRNA expression (Northern blot) in RC cells treated with hormones or growth factors. In kind it is cell-based, rat. The following applies: for effect of acute exposure on ERRα mRNA levels: 24 hours beginning at day 9 or day 15 (E2, D3) or day 7 and day 15 (TGFβ); for stimulation of ERRα mRNA expression at times later than day 6 / stimulation (increase) of ERRα mRNA expression: RC cells treated continuously; for stimulation (increase) of ERRα mRNA expression: E2 10^−8M, D3 10^−9M, TGFβ 10^−10 M. Here is the method: as §1
Total RNA was extracted with guanidine from RC cells at different times of the culture corresponding to different stages of proliferation, differentiation and bone nodule formation (Current Protocols in Molecular Biology, vol. 1, 1996). Northern blots were prepared and hybridized with a 750bp fragment corresponding to the rat 3′ UTR of ERRα according to standard procedures (Chirgwin et al, 1979). Rat α1 COLL-I (Genovese et al.) was a 900bp cDNA PstI fragment containing the entire 3′ noncoding region and one-half of the C-terminal of the propeptide of the α1 chain of type I. Rat bone/liver/kidney ALP (Noda et al., 1987) was a 600 bp cDNA EcoRI fragment obtained by digesting pRAP54 with BssHII-XhoI to remove 1.8 kb of the 5′ region and religating the blunt ends. Rat OPN was a 700 bp cDNA BamHI-EcoRI fragment obtained by digesting the full length cDNA with PvuI to remove 800 bp of 5′ region and ligating the blunt ended fragment into SmaI cut pGEM-7Zf(+) vector (Promega, Madison, Wis.). Rat OCN was a partial cDNA containing 350 bp of the 3′ UTR isolated with OCN-specific primers from a λgt11 library prepared from ROS 17/2.8 cells, rat BSP was a partial cDNA containing 500bp of 3′ region isolated with BSP-specific primers from a λgt11 library prepared from RC cells forming bone nodules, and rat L32 was generated from RC cell mRNA by PCR using specifics primers; the identities of the OCN, BSP and L32 probes were confirmed by sequencing (Liu et al., 1994).

Setting [4] is: treated days 1-6, day 15, vs control or sense-treated.

Take “5′TCACCGGGGGTTCAGTCTCA-3′(SEQ ID NO:30) (all phosphorothioate, sugars by position and methylation of C not given here) [antisense oligonucleotide]”: the “decrease in cell number” value in data set [1] (RC cells treated days 1-6, counted at day 6, 1 μM, vs sense or untreated controls) is 30%. In addition, the “decrease in cell number” value in data set [1] (RC cells treated days 1-6, counted at day 6, 2 μM, vs sense or untreated controls) was determined as 40%. Also, the “decrease in cell number” value in data set [1] (treated day 5 to day 11, by day 15, 1 μM) turned out to be 19%. Besides, the “decrease in cell number” value in data set [1] (treated day 5 to day 11, by day 15, 2 μM) is given as 35%. Also, in data set [2] (treated day 5 to day 11), the ALP expression result is recorded as “not affected”, the BSP expression result is “decreased”, the COLLI expression entry is “not affected” and the OCN expression entry is recorded as “decreased”. In addition, in data set [2] (treated day 5 to day 11), the OPN expression entry is “not affected” and the cbfa1 expression entry is listed as “decreased”. In data set [2] (treated days 1-6, day 6), the ALP expression entry is “not significantly affected”, the BSP expression entry is given as “reduced significantly”, the Bax expression result is recorded as “not significantly affected” and the Bcl2 expression result is on record as “not significantly affected”. Moreover, in data set [2] (treated days 1-6, day 6), the COLLI expression entry was “not significantly affected”, the “Cyclin D1 expression” value is on record as “reduced but it did not reach statistical significance”, the OPN expression result is recorded as “not significantly affected” and the c-Fos expression entry was “not significantly affected”. Besides, the cbfa1 expression entry in data set [2] (treated days 1-6, day 6) was “reduced significantly”. Further, in data set [2] (treated days 1-6, day 15), the COLLI expression result was “not significantly altered”, the OCN expression result is “not significantly altered” and the OPN expression result is recorded as “not significantly altered”. In addition, in data set [2] (setting [4]), the ALP expression result is listed as “remained lower” and the BSP expression entry was “remained lower”. In addition, in data set [2] (treated days 9-15), the ALP expression entry is “not BSP, COLLI or ALP were decreased”; the BSP expression entry is “not BSP, COLLI or ALP were decreased”; the COLLI expression entry is given as “not BSP, COLLI or ALP were decreased”; the OCN expression entry was “decreased”. In addition, the OPN expression result in data set [2] (treated days 9-15) is listed as “decreased”. The “ERRα detection in bone nodules” value in the data set with ERRα is listed as “almost undetectable”. For the same compound, the “decrease in mineralized bone nodule formation” value in data set [3] (0.5 μM) is 30%. For the same compound, in data set [3] (1 μM), the “decrease in mineralized bone nodule formation” value was determined as 60% and the “decrease in mineralized bone nodule number” value is 29%. In data set [3] (2 μM), the “decrease in mineralized bone nodule formation” value was 100% and the “decrease in mineralized bone nodule number” value came to 45%. For the same compound, in data set [3] (treated days 9-15, 1 μM), the “decrease in the number of mineralized bone nodules formed” value stood at 17%. The “decrease in the number of mineralized bone nodules formed” value in data set [3] (treated days 9-15, 2 μM) was 27%. Also, the “surface area covered by bone nodules that did form” value in data set [3] (treated days 9-15, compared to control cultures) is given as “greater surface area”.

Take `C=C1/C(=C\C=C2/CCC[C@]3(C)[C@@H]([C@H](C)CCCC(C)(C)O)CC[C@@H]23)C[C@@H](O)C[C@@H]1O` [D3, 1,25(OH)2 vitamin D3]: in the data set on ERRα mRNA, the “effect of acute exposure on ERRα mRNA levels” value was “no effect” and the “stimulation of ERRα mRNA expression at times later than day 6” value is “not later”. For the same compound, in the data set with ERRα mRNA (day 6), the “stimulation (increase) of ERRα mRNA expression” value was 47%.

Turning to `C[C@@H]1C[C@H]2[C@@H]3CCC4=CC(=O)C=C[C@]4(C)[C@@]3(F)[C@@H](O)C[C@]2(C)[C@@]1(O)C(=O)CO` [Dex, dexamethasone], in the data set with ERRα mRNA (24 hour acute treatment of RC cells at day 9 or day 15), the “effect of acute treatment on ERRα expression level” value is recorded as “no effect”.

With `CCCCC[C@H](O)/C=C/[C@H]1[C@H](O)CC(=O)[C@@H]1C/C=C\CCCC(=O)O` [PGE2], the “effect on ERRα expression” value with ERRα mRNA (RC cells, PGE2 10^−9 M, Dex) is listed as “Neither PGE2 nor Dex had any significant effect”.

Regarding PTH-1-34: 1-34 PTH (Sigma), the “decrease of ERRα after acute exposure” value with ERRα mRNA (acute exposure at day 7) is 25%; with ERRα mRNA (acute exposure at day 16) it was 33%. Moreover, the “inhibition of ERRα” value in the data set on ERRα mRNA (continuous 10^−11 M, day 6) was determined as 15%; with ERRα mRNA (continuous 10^−11 M, day 15) it was 26%. Also, the “increase of ERRα” value in the data set on ERRα mRNA (continuous 10^−11 M, day 12) was determined as 20%.

Consider TGFβ, for which, in the data set on ERRα mRNA, the “effect of acute exposure on ERRα mRNA levels” value was “no effect” and the “stimulation of ERRα mRNA expression at times later than day 6” value was “not later”. In addition, the “stimulation (increase) of ERRα mRNA expression” value in the data set with ERRα mRNA (day 6) is on record as 400%.
